# Several values for one entry are separate records, joined by “and”; a condition that tells them apart may be missing. Equal values may be shown once.
# Experiments:
# caspase 3,7 = test: Caspase 3,7 activation (FLICA, flow cytometry); format: cell-based, human; settings: PC3, 24 h
# Experimental: For apoptosis assays, PC3 cells were treated with C6 for 24 h and then apoptosis was assayed by staining for 15 min with FITC Annexin V reagent (BD Pharmingen) and propidium iodide (PI). Apoptotic cells were detected by flow cytometry (BD FACSCanto II flow cytometer) and analyzed using BD FACSDiva v8.0.1 software (BD Biosciences). Caspase 3,7 activation was evaluated using fluorochrome-labeled inhibitors of caspases (FLICA) of the CaspaTag Caspase 3,7 In Situ Assay Kit, Fluorescein (Millipore) and evaluated by flow cytometry; data were expressed as mean fluorescence intensity.
# [1] = tested on: normal human adipose-derived stromal cells (ADSCs); test: Growth inhibition in adipose-derived stromal cells (MTT, 72 h); format: cell-based; settings: MTT after 72 h
# Experimental: Human adipose-derived stromal cells (ADSCs) were from Lonza (Verviers, Belgium). ADSCs were maintained in MSGM bullet kit (Lonza) and experiments were performed in DMEM (Cambrex Bio Science, Milan, Italy) supplemented with 10% FBS. To evaluate effects of C6, ADSCs were seeded in 96-well flat-bottomed microplates (5.0×10^3 cells in 100 μL per well) and incubated for 24 h (to allow cell adhesion) before drug testing. The medium was removed and replaced with fresh medium containing C6 at increasing concentrations (from 0.1 to 1 μM). Cells were incubated at 37° ° C. for 72 h. Each treatment was performed in triplicate. Cell growth was measured using the MTT assay.
# 20S proteasome = 20S proteasome activity in lysates of treated PC3 cells; format: cell-based, human; settings: PC3, 12 h
# Experimental: Proteasome activity (EC 3.4.25.1) was evaluated on the same cell lysates as used to assay TrxR. Proteasome activity was assayed in cytosolic extracts using the 20S Proteasome Activity Assay kit APT280 (Merck Millipore) and a computer-interfaced GeniusPlus microplate reader (Tecan).
# PC3 cells [2] = test: In vitro scratch assay (cell migration); format: cell-based, human; settings: PC3, 3 h pretreatment with C6 (IC50), 36 h after scratch; control about 10%
# Experimental: Cell migration was assessed using the in vitro scratch assay. Briefly, cells were grown to confluence and then treated with C6 (IC50). After 3 h, monolayers were washed twice with PBS, scraped with a pipette tip to create a “wound” in the monolayer, and washed again. Culture medium with 2% (not 10%) FBS was added and the cells were cultured for 36 h. Wounds were photographed every 12 h using an inverted microscope (EclipseTS/100, Nikon) at magnification 4×. Migration was assessed by measuring the cell-free area (in pixels) with ImageJ tool software after 12, 24 and 36 h.
# [3] = tested on: MCF-7 breast cancer cell line; test: Cytotoxicity assay (MTT, 72 h); format: cell-based, human; settings: MCF-7, MTT after 72 h, mean (SD); read-out: Half-maximal inhibitory concentration (IC50)
# Experimental: (§1) R-ME-180 and A2780cis cells were maintained in 1 μM cisplatin. Adipose-derived stromal cells were maintained in MSCGM BulletKit medium (Lonza). All cell lines were cultured at 37° C. in a 5% CO2, fully humidified atmosphere
# (§2) Cell lines were seeded in 96-well flat-bottomed microplates in 100 μL culture medium at the following densities: DU145, PC3 and MCF-7 cells (2.5×10^3 cells/well); A2780, A2780cis, ME-180, R-ME-180 and A549 cells (4.0×10^3 cells/well); and MG-63 cells (2.0×10^3 cells/well). Cells were allowed to adhere for 24 h. Then the medium was replaced with fresh medium alone or with one of the gold(III) complexes at increasing concentrations from 0 to 100 μM. The reference drugs cisplatin (0-100 μM) and doxorubicin (0-1 μM) were included as positive controls for growth inhibition. After 72 h, cell viability was assayed using the MTT assay.
# (§3) See Chou T. C.; Talalay P. Quantitative analysis of dose-effect relationships: the combined effects of multiple drugs or enzyme inhibitors. […] 22, 27-55, incorporated herein by reference in its entirety. IC50 values were reported as mean (SD). For drug-resistance cell lines, fold resistance (FR) was calculated as the ratio of the IC50 of the resistant cell line to the IC50 of the parental cell line.
# [4] = tested on: A549 lung cancer cell line; test: Cytotoxicity assay (MTT, 72 h); format: cell-based, human; settings: A549, MTT after 72 h, mean (SD); read-out: Half-maximal inhibitory concentration (IC50)
# Experimental: as §1, §2, §3
# [5] = tested on: cisplatin- and doxorubicin-resistant A2780cis clone; test: Cytotoxicity assay (MTT, 72 h); format: cell-based, human
# Experimental: as §1, §2, §3
# [6] = tested on: MG-63 osteosarcoma cell line; test: Cytotoxicity assay (MTT, 72 h); format: cell-based, human; settings: MG63, MTT after 72 h, mean (SD); read-out: Half-maximal inhibitory concentration (IC50)
# Experimental: as §1, §2, §3
# [7] = tested on: cisplatin-resistant R-ME-180 clone; test: Cytotoxicity assay (MTT, 72 h); format: cell-based, human
# Experimental: as §1, §2, §3
# [8] = tested on: PC3 prostate cancer cell line; test: Cytotoxicity assay (MTT, 72 h); format: cell-based, human
# Experimental: as §1, §2, §3
# [9] = tested on: DU145 prostate cancer cell line; test: Cytotoxicity assay (MTT, 72 h); format: cell-based, human; settings: DU145, MTT after 72 h, mean (SD); read-out: Half-maximal inhibitory concentration (IC50)
# Experimental: as §1, §2, §3
# PC3 cells [10] = test: Reactive oxygen species production (H2DCFDA); format: cell-based, human; settings: PC3, C6 at IC50 and IC75, 24 h
# Experimental: The production of reactive oxygen species (ROS) was evaluated using 2′,7′-dichlorodihydrofluorescein diacetate (H2DCFDA) (H2-DCF, DCF) (Invitrogen). Cells were pretreated with the antioxidant N-acetyl-L-cysteine (NAC; 5 mM) (Sigma) for 30 min before C6 was added. After 24 h of C6 treatment, cells were harvested and viable cells were counted by trypan blue dye exclusion. Then cells were washed, stained with 1 μM H2DCFDA for 30 min at 37° C., and finally ROS production was analyzed by flow cytometry.
# [11] = tested on: thioredoxin reductase (TrxR); test: Thioredoxin reductase activity in lysates of treated PC3 cells; settings: PC3, C6 at IC25, IC50, IC75, 12 h
# Experimental: All experimental conditions were tested in triplicate and experiments were done three times to calculate means and SD.
# Thioredoxin reductase (TrxR) (EC 1.8.1.9) was assayed using the Thioredoxin Reductase Assay Kit (Sigma-Aldrich). […] Enzyme activity was determined reading absorbance at 412 nm using a spectrophotometer (Biomate 3 Thermo Spectronic). The enzymatic activity was normalized to the protein concentration, determined using the Bio-Rad protein assay (Protein Assay Dye Reagent Concentrate, Bio-Rad Laboratories), and expressed as percentage of control (no C6).
# PC3 cells [12] = test: Cell cycle distribution (PI staining); format: cell-based, human; settings: vs untreated cells
# Experimental: To assay the distribution of cells in the various phases of the cell cycle, PC3 cells were treated with C6 for 48 h, then harvested, fixed in cold 70% ethanol for 15 min and stained with PI solution (50 μg/mL PI, 0.1% NP-40, 100 μg/mL PureLink RNase A, 0.1% sodium citrate). After 1 h, cells were analyzed by flow cytometry. The distribution of cells in different cell cycle phases was quantified using ModFit LT 4.0 software.
smiles,measurement,setting,value
"C[N+](C)=C1[S][Au-]2([S]1)[n+]1ccc[n+]3c1-c1[n+]2ccc[n+]1[Au-]31[S]C(=[N+](C)C)[S]1.[Cl-].[Cl-].[Cl-].[Cl-] [C6, [Au2(BPM)(DMDTC)2]Cl4]","caspase 3,7 activation (FLICA)","caspase 3,7","activated caspase 3,7"
same,IC50,[1],1400 nM
same,20S proteasome activity,20S proteasome,dose-dependent inhibitory effect
same,remaining uncovered area in scratch assay,PC3 cells [2],about 40%
same,IC50,[3],500 nM
same,IC50,[4],800 nM
same,IC50,"[5]; A2780cis, MTT after 72 h, mean (SD)",300 nM
same,"FR (A2780cis/A2780), fold resistance",[5]; IC50 A2780cis / IC50 A2780,1.2
same,IC50,[6],800 nM
same,"FR (R-ME-180/ME-180), fold resistance",[7]; IC50 R-ME-180 / IC50 ME-180,0.9
same,IC50,"[7]; R-ME-180, MTT after 72 h, mean (SD)",4900 nM
same,IC25,[8]; PC3,310 nM
same,IC75,[8]; PC3,1850 nM
same,IC50,"[8]; PC3, MTT after 72 h, mean (SD), read-out: Half-maximal inhibitory concentration (IC50)",600 nM and 620 nM
same,IC50,[9],700 nM
same,ROS production,PC3 cells [10],induced ROS production in a dose-dependent manner
same,TrxR enzymatic activity,[11],dose-dependent decrease of its enzymatic activity
same,distribution of cells in the cell cycle,PC3 cells [12],increasing the percentage of cells in S phase and decreasing that in G1

# Source: patent publication US12103939B2, “Solid pharmaceutical gold-based composition” (KING FAHD UNIVERSITY OF PETROLEUM AND MINERALS, priority 2019, dated 2024)
